Patent US9353067B2, “Heterocyclic compounds and uses thereof in the treatment of sexual disorders” (ATIR Holding S.A., priority 2011, dated 2016)
Values joined by “and” are separate entries in the source; they are usually repeats but may differ in a detail not shown here. Equal entries are not always repeated.

Experiments:
[1] = Solubility of R-55 in solvents for transdermal formulation; type: physicochemical
Method: To this effect, a stable oil-in-water emulsion was developed. Various solvents were tested in order to achieve an R-55 concentration of up to 20 mg/gram in the lipid phase of the emulsion, in order to achieve a total concentration of up to 10 mg/gram R-55.
The following organic solvents which are used in transdermal formulations were tested: […]

[2] = Transdermal administration of R-55 formulation to pigs, plasma R-55; type: in vivo, White Landrace female pigs
Method: R-55 and related compounds were assayed in the plasma samples using a Waters (USA) Alliance high performance liquid chromatograph coupled with a Waters Micromass ZQ quadruple mass spectrometer (in ESI+ mode) as a detector with Waters Empower chromatographic and mass spectrometric software for chromatographic data acquisition, processing and instrument control.
The tested compound was extracted from plasma using dichloromethane, followed by concentration by evaporating the extract and dissolution in a low volume chromatographic mobile phase.
The instrument was calibrated using plasma spiked with various concentrations of the tested compound. Enrofloxacin (m/z=360.4) was used as an internal standard.
In order to investigate the feasibility of transdermal administration of R-55, the presence of R-55 in plasma was measured following administration to pigs of the exemplary transdermal formulation described in Example 5.
White Landrace female pigs were acclimatized for 5 days prior to application of the formulation. 50 ml of the formulation (containing 500 mg R-55) was applied over a 15×7 cm area of the skin of each pig, in a single dose. In order to facilitate constant transdermal administration for at least 6 hours, a suitable plastic shield, attached by adhesive plaster, was used to cover the whole treated dermal surface area for six hours.
Clinical observations were performed during the six hours following application.
Blood samples were withdrawn from each pig via a jugular vein catheter at the following time points: immediately prior to application (t=0) and 15 minutes, 30 minutes, 45 minutes, 60 minutes, 90 minutes, 2 hours, 4 hours, and 6 hours post-application. All samples were collected in commercially available, EDTA supplemented test-tubes. Blood samples were stored on crushed ice after collection. Plasma was separated by centrifugation (10 minutes at 3000 rotations per minute), within one hour post-sampling. Each plasma sample was divided into two aliquots before freezing. Plasma samples were then stored at −20° C. until being dispatched for LCMS analysis.

[3] = molecular target: D2 short receptor (Homo sapiens (Human), UniProt P14416); assay: Competitive binding to D2 short receptor ([3H]-spiperone), D4/D2 selectivity; conditions: ratio of concentrations required to inhibit 50% of radioligand binding for each receptor
Sequence of D2 short receptor (P14416 other isoform, or with tags, fused parts or gaps): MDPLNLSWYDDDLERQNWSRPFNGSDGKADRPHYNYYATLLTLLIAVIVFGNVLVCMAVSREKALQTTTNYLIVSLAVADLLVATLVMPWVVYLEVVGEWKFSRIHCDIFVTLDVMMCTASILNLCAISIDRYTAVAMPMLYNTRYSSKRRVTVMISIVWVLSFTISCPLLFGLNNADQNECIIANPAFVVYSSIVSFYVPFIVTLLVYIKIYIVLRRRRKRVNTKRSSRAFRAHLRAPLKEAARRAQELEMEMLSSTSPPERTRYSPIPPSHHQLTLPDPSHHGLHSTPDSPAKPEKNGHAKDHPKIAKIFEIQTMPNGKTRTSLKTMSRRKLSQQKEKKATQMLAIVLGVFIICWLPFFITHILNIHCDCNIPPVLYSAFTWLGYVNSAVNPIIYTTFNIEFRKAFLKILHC
Method: R-55 (which comprises a 3-hydroxyphenyl moiety) and its isomers L-221 (comprising a 4-hydroxyphenyl moiety) and L-238 (comprising a 2-hydroxyphenyl moiety) were assayed for competitive binding to D2 SHORT and D4.4 type dopamine receptors, in order to assess their efficacy for treating sexual disorders. Both receptor types are expressed as human recombinant proteins in CHO cells, as described, for example, in Jarvis et al. (1973); Van Tol et al. (1991) and Van Tol et al. (1992).
Determination of binding to D2 short receptor was performed using [^3H]-spiperone, a D2 receptor ligand (Gundlach et al., 1984), as a radioligand (20-60 Ci/mmol, 0.2 nM) in the presence of various concentrations of the tested compound. Reactions were carried out in 50 mM TRIS-HCl (pH 7.4) containing 120 mM NaCl, 5 mM KCl, 5 mM MgCl2 and 1 mM EDTA, for 60 minutes at 25° C. The reaction was terminated by rapid vacuum filtration onto glass fiber filters. Radioactivity trapped onto the filters was determined (counted) and compared to control values in order to accurately evaluate any interaction of the test compound(s) with the cloned dopamine D2 short binding site.
Selectivity of R-55 was calculated as the D4/D2 binding ratio, based on the ratio of the concentration required to inhibit 50% of the radioligand binding for each receptor.

[4] = system: Adrenergic α1 receptor; assay: Competitive binding, prazosin radioligand; design: species or system Wistar rat
Method: (§1) R-55 (which comprises a 3-hydroxyphenyl moiety) and the structurally related compounds N-108 (2-{[4-(2-ethoxyphenyl)piperazin-1-yl]methyl}quinazolin-4(3H)-one) and B-39 (7-chloro-2-((5,6-dihydro-4-(2-methoxyphenyl)pyridin-1(2H)-yl)methyl)quinazolin-4(3H)-one) were assayed for competitive binding to a variety of receptors, including D4.4 type dopamine receptor, in order to assess their specificity for D4.4 dopamine receptors.
(§2) The receptors were expressed as human recombinant proteins in CHO cells, except for adrenergic α1 and α2 receptors which were expressed in Wistar rat brain and cerebral cortex cells, respectively, and melanocortin MC4 receptor which was expressed in human recombinant HEK-293 cells. Binding was determined using the following radioligands in the presence of various concentrations of the tested compound:
0.25 nM prazosin for adrenergic α1 receptor,
(§3) The binding assays were performed in accordance with procedures described in the literature (Greengrass & Bremner, 1979; Boyajian & Leslie, 1987; Broadhurst, 1988; Lewis, 2001; Sutton, 1995; Dearry, 1990; Zhou, 1990; Grandy, 1989; Hayes, 1992; Sokoloff, 1990; Van Tol, 1991; Van Tol 1992; Sunahara, 1991; Weinshank, 1991; Schioth, 1996; Schioth 1997; Martin & Humphrey, 1994; May, 2003; Wolf & Schutz, 1997).

[5] = molecular target: CRF1 receptor (Homo sapiens (Human), UniProt P34998); assay: Competitive binding, (Tyr0)-CRF radioligand
Sequence of CRF1 receptor (P34998 24-415): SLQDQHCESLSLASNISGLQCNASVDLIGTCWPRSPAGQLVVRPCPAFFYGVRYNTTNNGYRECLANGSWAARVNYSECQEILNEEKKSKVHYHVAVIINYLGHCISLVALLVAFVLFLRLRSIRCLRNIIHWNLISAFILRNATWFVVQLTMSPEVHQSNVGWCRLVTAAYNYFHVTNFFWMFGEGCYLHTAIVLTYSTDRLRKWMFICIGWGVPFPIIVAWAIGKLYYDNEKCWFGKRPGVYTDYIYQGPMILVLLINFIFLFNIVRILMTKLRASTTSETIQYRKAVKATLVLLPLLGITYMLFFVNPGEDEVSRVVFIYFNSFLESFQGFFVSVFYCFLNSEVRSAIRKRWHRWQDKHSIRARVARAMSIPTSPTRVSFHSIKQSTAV
Method: as §1, §2
0.05 nM)(Tyr^0)-corticotropin releasing factor (CRF) for corticotropin releasing factor CRF1 receptor,
as §3

[6] = molecular target: Dopamine D1 receptor (Homo sapiens (Human), UniProt P21728); assay: Competitive binding, SCH-23390 radioligand
Sequence of Dopamine D1 receptor (P21728 whole entry): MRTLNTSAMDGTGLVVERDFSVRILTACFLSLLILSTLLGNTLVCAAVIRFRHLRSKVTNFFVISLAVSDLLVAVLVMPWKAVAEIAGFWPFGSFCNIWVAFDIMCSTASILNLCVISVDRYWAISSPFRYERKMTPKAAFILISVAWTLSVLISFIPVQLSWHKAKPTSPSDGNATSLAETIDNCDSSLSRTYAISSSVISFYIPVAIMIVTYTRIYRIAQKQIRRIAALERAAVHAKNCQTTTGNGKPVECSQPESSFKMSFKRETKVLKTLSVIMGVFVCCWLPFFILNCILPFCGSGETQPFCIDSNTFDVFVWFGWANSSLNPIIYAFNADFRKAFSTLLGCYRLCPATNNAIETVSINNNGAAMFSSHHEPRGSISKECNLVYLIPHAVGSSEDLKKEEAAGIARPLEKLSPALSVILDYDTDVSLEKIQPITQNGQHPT
Method: as §1, §2
(§4) 1.4 nM and 2 nM SCH-23390, respectively, for dopamine D1 and D5 receptors,
as §3

[7] = molecular target: Dopamine D5 receptor (Homo sapiens (Human), UniProt P21918); assay: Competitive binding, SCH-23390 radioligand
Sequence of Dopamine D5 receptor (P21918 whole entry): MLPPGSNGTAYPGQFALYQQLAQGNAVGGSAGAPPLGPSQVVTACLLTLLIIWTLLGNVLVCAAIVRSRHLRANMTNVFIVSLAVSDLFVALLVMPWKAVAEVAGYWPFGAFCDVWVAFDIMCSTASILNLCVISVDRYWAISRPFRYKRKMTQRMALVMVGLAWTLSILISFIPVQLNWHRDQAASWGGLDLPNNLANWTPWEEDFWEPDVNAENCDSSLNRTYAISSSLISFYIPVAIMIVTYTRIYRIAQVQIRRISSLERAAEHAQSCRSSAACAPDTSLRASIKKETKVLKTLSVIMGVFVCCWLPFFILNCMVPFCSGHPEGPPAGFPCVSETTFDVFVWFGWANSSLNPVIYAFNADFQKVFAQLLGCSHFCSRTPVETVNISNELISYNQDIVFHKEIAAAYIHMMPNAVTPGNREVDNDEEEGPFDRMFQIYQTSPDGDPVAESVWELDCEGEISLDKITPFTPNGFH
Method: as §1, §2, §4, §3

[8] = molecular target: Serotonin 5-HT1A receptor (Homo sapiens (Human), UniProt P08908); assay: Competitive binding, 8-OH-DPAT radioligand
Sequence of Serotonin 5-HT1A receptor (P08908 whole entry): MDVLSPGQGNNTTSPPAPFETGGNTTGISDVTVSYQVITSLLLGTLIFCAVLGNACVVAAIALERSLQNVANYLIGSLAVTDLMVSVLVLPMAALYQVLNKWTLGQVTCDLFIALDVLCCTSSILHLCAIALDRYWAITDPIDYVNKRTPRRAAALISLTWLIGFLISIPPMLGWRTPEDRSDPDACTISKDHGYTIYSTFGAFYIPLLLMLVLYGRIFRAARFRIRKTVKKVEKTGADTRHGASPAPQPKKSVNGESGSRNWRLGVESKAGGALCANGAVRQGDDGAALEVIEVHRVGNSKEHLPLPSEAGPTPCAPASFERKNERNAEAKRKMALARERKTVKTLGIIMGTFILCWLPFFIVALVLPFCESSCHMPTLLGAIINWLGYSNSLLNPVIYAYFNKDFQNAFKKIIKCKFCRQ
Method: as §1, §2
1.5 nM 8-OH-DPAT for serotonin 5-HT1A receptor, and
as §3

[9] = molecular target: Serotonin 5-HT2C receptor (Homo sapiens (Human), UniProt P28335); assay: Competitive binding, mesulergine radioligand
Sequence of Serotonin 5-HT2C receptor (P28335 33-458): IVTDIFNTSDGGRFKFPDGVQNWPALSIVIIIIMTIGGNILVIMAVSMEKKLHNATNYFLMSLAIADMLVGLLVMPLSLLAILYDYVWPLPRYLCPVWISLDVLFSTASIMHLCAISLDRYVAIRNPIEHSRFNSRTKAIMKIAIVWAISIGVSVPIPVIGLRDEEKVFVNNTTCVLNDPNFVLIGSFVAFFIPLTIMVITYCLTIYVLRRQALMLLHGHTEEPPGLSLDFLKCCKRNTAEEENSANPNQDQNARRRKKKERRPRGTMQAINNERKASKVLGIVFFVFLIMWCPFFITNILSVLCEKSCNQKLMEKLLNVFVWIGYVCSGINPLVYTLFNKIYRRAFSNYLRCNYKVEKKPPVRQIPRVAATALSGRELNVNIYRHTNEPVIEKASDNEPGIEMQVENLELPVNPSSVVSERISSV
Method: as §1, §2
1 nM mesulergine for serotonin 5-HT2C receptor.
as §3

With `O=c1[nH]c(CN2CCN(c3cccc(O)c3)CC2)nc2ccccc12` [Compound R-55, 2-((4-(3-hydroxyphenyl)piperazin-1-yl)methyl)quinazolin-4-one] the “solubility of R-55 in propylene glycol” value ([1]; propylene glycol (PG)) was “less than 5 mg/gram”, the “solubility of R-55 in propylene glycol with phosphatidyl choline” value ([1]; weight ratio of 4:1 PG:PC) was 8 mg/gram and the concentration at 0 min ([2]; female, White Landrace, pig, plasma, topical, 500 mg, transdermal 500 mg R-55 (50 ml formulation), 0 minutes (immediately prior to application), individual animals #1-#4) was 0 ng/mL. It also gave a concentration at 30 min ([2]; female, White Landrace, pig, plasma, topical, 500 mg, transdermal 500 mg R-55, 30 minutes after application, individual animals #1-#4) of 16.7 ng/mL, a concentration at 4 h ([2]; female, White Landrace, pig, plasma, topical, 500 mg, transdermal 500 mg R-55, 4 hours after application, individual animals #1-#4) of 0 ng/mL and a concentration at 6 h ([2]; female, White Landrace, pig, plasma, topical, 500 mg, transdermal 500 mg R-55, 6 hours after application, individual animals #1-#4) of 0 ng/mL. The “R-55 concentration (plasma)” value ([2]; transdermal 500 mg R-55 (50 ml formulation), 0 minutes (immediately prior to application), individual animals #1-#4) was 0 ng/mL, the “R-55 concentration (plasma)” value ([2]; transdermal 500 mg R-55, 15 minutes after application, individual animals #1-#4) was 0 ng/ml (3×) and 10.8 ng/ml and the “R-55 concentration (plasma)” value ([2]; transdermal 500 mg R-55, 30 minutes after application, individual animals #1-#4) was 19.9 ng/mL and 11.8 ng/mL and 15.2 ng/mL. The “R-55 concentration (plasma)” value ([2]; transdermal 500 mg R-55, 45 minutes after application, individual animals #1-#4) was 0 ng/ml (3×) and 10.5 ng/ml, the “R-55 concentration (plasma)” value ([2]; transdermal 500 mg R-55, 60 minutes after application, individual animals #1-#4) was 10.3 ng/ml and 0 ng/ml (2×) and 10.7 ng/ml and the “R-55 concentration (plasma)” value ([2]; transdermal 500 mg R-55, 90 minutes after application, individual animals #1-#4) was 16.8 ng/ml and 0 ng/ml (2×) and 10.1 ng/ml. For the same molecule, the “R-55 concentration (plasma)” value ([2]; transdermal 500 mg R-55, 2 hours after application, individual animals #1-#4) was 14.8 ng/mL and 11.8 ng/mL and 0 ng/mL and 10.7 ng/mL, the “R-55 concentration (plasma)” value ([2]; transdermal 500 mg R-55, 4 hours after application, individual animals #1-#4) was 0 ng/mL and the “R-55 concentration (plasma)” value ([2]; transdermal 500 mg R-55, 6 hours after application, individual animals #1-#4) was 0 ng/mL. For the same molecule, the Clinical observations ([2]; transdermal 500 mg R-55, six hours following application) was “No clinical abnormalities were observed”, the “duration of relatively stable concentration of R-55 in plasma after administration” value ([2]; transdermal administration) was “at least 2 hours” and the “Selectivity D4/D2” value [3] was 160. For the same molecule, the “Competitive binding (%) at 5 μM of tested compound” value (“Competitive binding (%) at 5 μM” below) [4] was 10%, the “Competitive binding (%) at 5 μM” value [5] was 3% and the “Competitive binding (%) at 5 μM” value [6] was −12%. For the same molecule, the “Competitive binding (%) at 5 μM” value [7] was 0%, the “Competitive binding (%) at 5 μM” value [8] was 7% and the “Competitive binding (%) at 5 μM” value [9] was 5%.
